Data: US8642642B2, “Heterocyclic arylsulphones suitable for treating disorders that respond to modulation of the serotonin 5HT6 receptor” (Abbott Laboratories, priority 2006, dated 2014)
Counter-ions that a name gives are not always drawn.

Target: T1, human 5-HT6 receptor (Homo sapiens, UniProt P50406)
T1 construct: expressed in transfected cells
Experiment: Human 5-HT6 receptor binding assay (3H-LSD displacement)
Conditions: membranes from HEK-293 cells, 2 nM 3H-LSD
Protocol: The substance to be tested was either dissolved in methanol/Chremophor® (BASF-AG) or in dimethyl sulfoxide and then diluted with water to the desired concentration.
The compounds were dissolved in a concentration of 10^−2 M or 10^−3 M in DMSO. Further dilutions were performed in incubation buffer.
The procedure for the binding assay was based on the method of Monsma et al. (1993) Mol Pharmacol 43: 320-327. The binding reaction was carried out in a total volume of 0.250 ml for 60 min at 37° C. Membranes from HEK-293 cells stably expressing the human 5-HT6 receptor were incubated with 2 nM ^3H-LSD in the presence or absence of various concentrations of test compound for 60 min at 37° C. Non-specific binding was defined with 100 μM Serotonin (5-HT). Assays were performed in duplicate. Bound and free radioligand was separated by filtration and bound radioactivity determined by liquid scintillation counting.
The specific ligand binding to the receptors was defined as the difference between the total binding and the nonspecific binding determined in the presence of an excess of unlabelled 5-HT. The results are expressed as a percent of control specific binding obtained in the presence of compound. The IC50 values (concentration causing a half-maximal inhibition of control specific binding) and Hill coefficients (nH) were determined by non-linear regression analysis of the competition curves using Hill equation curve fitting.
The inhibition constants (Ki) were calculated from the Cheng Prusoff equation (Ki=IC50/(1+(L/KD)), where L=concentration of radioligand in the assay, and KD=affinity of the radioligand for the receptor).

T1 sequence (P50406 whole entry): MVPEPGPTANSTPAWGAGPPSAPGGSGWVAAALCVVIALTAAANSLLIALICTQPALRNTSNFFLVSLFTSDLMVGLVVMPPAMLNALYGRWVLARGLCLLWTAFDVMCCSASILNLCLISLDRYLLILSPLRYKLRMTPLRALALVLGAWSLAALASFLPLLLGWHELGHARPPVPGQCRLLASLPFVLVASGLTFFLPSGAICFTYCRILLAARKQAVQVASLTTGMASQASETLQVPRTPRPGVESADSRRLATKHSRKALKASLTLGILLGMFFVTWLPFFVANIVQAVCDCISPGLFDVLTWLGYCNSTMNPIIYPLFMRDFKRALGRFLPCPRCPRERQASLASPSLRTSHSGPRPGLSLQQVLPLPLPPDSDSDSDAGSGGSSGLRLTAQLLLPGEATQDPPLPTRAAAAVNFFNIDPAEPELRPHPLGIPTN

Row | SMILES | Ki
1 | CCCN1CC[C@@H](c2ccc(NS(=O)(=O)c3cccc(OC(F)(F)F)c3)cc2)C1 [Example 1, 3-Trifluoromethoxy-N-[4-((S)-1-propyl-pyrrolidin-3-yl)-phenyl]-benzenesulfonamide and its hydrochloride] | 0.01 to 0.05 µM
2 | O=S(=O)(Nc1cccc(C2CCNC2)c1)c1cccc(OC(F)(F)F)c1 (stereo not shown) [Example 6, N-(3-Pyrrolidin-3-yl-phenyl)-3-trifluoromethoxy-benzenesulfonamide] | 0.001 to 0.01 µM
3 | O=S(=O)(Nc1cccc([C@@H]2CCNC2)c1)c1cccc(OC(F)(F)F)c1 [Example 7, N—((S)-3-Pyrrolidin-3-yl-phenyl)-3-trifluoromethoxy-benzene sulfonamide] | 0.001 to 0.01 µM
4 | CCCN1CCC(c2cc(NS(=O)(=O)c3cccc(OC(F)(F)F)c3)ccc2OC)C1 (stereo not shown) [Example 8, N-[4-Methoxy-3-(1-propyl-pyrrolidin-3-yl)-phenyl]-3-trifluoromethoxy-benzenesulfonamide] | 0.01 to 0.05 µM
5 | Cc1c(S(=O)(=O)Nc2cccc(C3CNC3)c2)sc2ccc(Cl)cc12 [Example 9, 5-Chloro-3-methyl-benzo[b]thiophene-2-sulfonic acid (3-azetidin-3-yl-phenyl)-amide] | 0.001 to 0.01 µM
6 | Cc1nc(-c2cccc(S(=O)(=O)Nc3cccc(C4CNC4)c3)c2)cs1 [Example 10, N-(3-Azetidin-3-yl-phenyl)-3-(2-methyl-thiazol-4-yl)-benzenesulfonamide] | 0.001 to 0.01 µM
7 | O=S(=O)(Nc1ccc(C2CNC2)cc1)c1cccc(C(F)(F)F)c1 [Example 11, N-(4-Azetidin-3-yl-phenyl)-3-trifluoromethyl-benzenesulfonamide] | 0.001 to 0.01 µM
8 | O=S(=O)(Nc1cccc(C2CNC2)c1)c1cccs1 [Example 12, Thiophene-2-sulfonic acid (3-azetidin-3-yl-phenyl)-amide] | 0.01 to 0.05 µM
9 | O=S(=O)(Nc1cccc(C2CNC2)c1)c1cc(C(F)(F)F)cc(C(F)(F)F)c1 [Example 13, N-(3-Azetidin-3-yl-phenyl)-3,5-bis-trifluoromethyl-benzenesulfonamide] | 0.01 to 0.05 µM
10 | COc1ccc(OC)c(S(=O)(=O)Nc2cccc(C3CNC3)c2)c1 [Example 14, N-(3-Azetidin-3-yl-phenyl)-2,5-dimethoxy-benzenesulfonamide] | 0.001 to 0.01 µM
11 | O=S(=O)(Nc1cccc(C2CNC2)c1)c1cccc(F)c1 [Example 15, N-(3-Azetidin-3-yl-phenyl)-3-fluoro-benzenesulfonamide] | 0.001 to 0.01 µM
12 | O=S(=O)(Nc1cccc(C2CNC2)c1)c1cc(Cl)sc1Cl [Example 16, 2,5-Dichloro-thiophene-3-sulfonic acid (3-azetidin-3-yl-phenyl)-amide] | 0.001 to 0.01 µM
13 | O=S(=O)(Nc1cccc(C2CNC2)c1)c1cccc(Cl)c1 [Example 17, N-(3-Azetidin-3-yl-phenyl)-3-chloro-benzenesulfonamide] | < 0.001 µM
14 | O=S(=O)(Nc1cccc(C2CNC2)c1)c1cc(Cl)cc(Cl)c1 [Example 18, N-(3-Azetidin-3-yl-phenyl)-3,5-dichloro-benzenesulfonamide] | 0.001 to 0.01 µM
15 | Cc1cccc(S(=O)(=O)Nc2cccc(C3CNC3)c2)c1 [Example 19, N-(3-Azetidin-3-yl-phenyl)-3-methyl-benzenesulfonamide] | 0.001 to 0.01 µM
16 | COc1ccc(Br)cc1S(=O)(=O)Nc1cccc(C2CNC2)c1 [Example 20, N-(3-Azetidin-3-yl-phenyl)-5-bromo-2-methoxy-benzenesulfonamide] | < 0.001 µM
17 | O=S(=O)(Nc1cccc(C2CNC2)c1)c1ccc(S(=O)(=O)c2ccccc2)s1 [Example 21, 5-Benzenesulfonyl-thiophene-2-sulfonic acid (3-azetidin-3-yl-phenyl)-amide] | 0.05 to 0.15 µM

Row | SMILES | Ki
18 | COc1ccc(C)cc1S(=O)(=O)Nc1cccc(C2CNC2)c1 [Example 22, N-(3-Azetidin-3-yl-phenyl)-2-methoxy-5-methyl-benzenesulfonamide] | 0.001 to 0.01 µM
19 | CSc1nccc(-c2ccc(S(=O)(=O)Nc3cccc(C4CNC4)c3)s2)n1 [Example 23, 5-(2-Methylsulfanyl-pyrimidin-4-yl)-thiophene-2-sulfonic acid (3-azetidin-3-yl-phenyl)-amide] | 0.01 to 0.05 µM
20 | N#Cc1cccc(S(=O)(=O)Nc2cccc(C3CNC3)c2)c1 [Example 24, N-(3-Azetidin-3-yl-phenyl)-3-cyano-benzenesulfonamide] | 0.05 to 0.15 µM
21 | COc1cccc(S(=O)(=O)Nc2cccc(C3CNC3)c2)c1 [Example 25, N-(3-Azetidin-3-yl-phenyl)-3-methoxy-benzenesulfonamide] | 0.001 to 0.01 µM
22 | Cc1c(S(=O)(=O)Nc2ccc(C3CNC3)cc2)sc2ccc(Cl)cc12 [Example 26, 5-Chloro-3-methyl-benzo[b]thiophene-2-sulfonic acid (4-azetidin-3-yl-phenyl)-amide] | 0.001 to 0.01 µM
23 | O=S(=O)(Nc1cccc(C2CNC2)c1)c1cccc(C(F)(F)F)c1 [Example 31, N-(3-Azetidin-3-yl-phenyl)-3-trifluoromethyl-benzenesulfonamide] | 0.001 to 0.01 µM
24 | O=S(=O)(Nc1cccc(C2CNC2)c1)c1cccc(OC(F)(F)F)c1 [Example 32, N-(3-Azetidin-3-yl-phenyl)-3-trifluoromethoxy-benzenesulfonamide] | 0.001 to 0.01 µM
25 | CCCN1CC[C@@H](c2ccc(NS(=O)(=O)c3cccc([C@H](C)C(F)F)c3)cc2)C1 [Example 34, 3-((S)-2,2-Difluoro-1-methyl-ethyl)-N-[4-((S)-1-propyl-pyrrolidin-3-yl)-phenyl]-benzenesulfonamide] | 0.01 to 0.05 µM
26 | CCCN1CC(c2ccc(NS(=O)(=O)c3cc(Cl)ccc3Cl)cc2)C1 [Example 40, 2,5-Dichloro-N-[4-(1-propyl-azetidin-3-yl)-phenyl]-benzenesulfonamide] | 0.05 to 0.15 µM
27 | CCCN1CC(c2ccc(NS(=O)(=O)c3cc(C(F)(F)F)cc(C(F)(F)F)c3)cc2)C1 [Example 42, N-[4-(1-Propyl-azetidin-3-yl)-phenyl]-3,5-bis-trifluoromethyl-benzenesulfonamide] | 0.05 to 0.15 µM
28 | CCCN1CC(c2ccc(NS(=O)(=O)c3cc(C)ccc3C)cc2)C1 [Example 43, 2,5-Dimethyl-N-[4-(1-propyl-azetidin-3-yl)-phenyl]-benzenesulfonamide] | 0.01 to 0.05 µM
29 | CCCN1CC(c2ccc(NS(=O)(=O)c3ccc(F)c(Cl)c3)cc2)C1 [Example 44, 3-Chloro-4-fluoro-N-[4-(1-propyl-azetidin-3-yl)-phenyl]-benzenesulfonamide] | 0.05 to 0.15 µM
30 | CCCN1CC(c2ccc(NS(=O)(=O)c3cccc(F)c3)cc2)C1 [Example 45, 3-Fluoro-N-[4-(1-propyl-azetidin-3-yl)-phenyl]-benzenesulfonamide] | 0.01 to 0.05 µM
31 | CCCN1CC(c2ccc(NS(=O)(=O)c3cc(Cl)sc3Cl)cc2)C1 [Example 46, 2,5-Dichloro-thiophene-3-sulfonic acid [4-(1-propyl-azetidin-3-yl)-phenyl]-amide] | 0.05 to 0.15 µM
32 | CCCN1CC(c2ccc(NS(=O)(=O)c3ccc(Cl)s3)cc2)C1 [Example 47, 5-Chloro-thiophene-2-sulfonic acid [4-(1-propyl-azetidin-3-yl)-phenyl]-amide] | 0.01 to 0.05 µM
33 | CCCN1CC(c2ccc(NS(=O)(=O)c3cccc(Cl)c3)cc2)C1 [Example 48, 3-Chloro-N-[4-(1-propyl-azetidin-3-yl)-phenyl]-benzenesulfonamide] | 0.01 to 0.05 µM
34 | CCCN1CC(c2ccc(NS(=O)(=O)c3cc(Cl)cc(Cl)c3)cc2)C1 [Example 49, 3,5-Dichloro-N-[4-(1-propyl-azetidin-3-yl)-phenyl]-benzenesulfonamide] | 0.01 to 0.05 µM
